Laboratory results: patent publication US6914045B2, “Glycopeptide antibiotics” (Wyeth Holdings Corporation, priority 2001, dated 2005)
≈ marks a conversion by molar mass, not a printed value.

How the values were obtained:
Test in all cases: in vitro antibacterial evaluation, MIC by broth dilution
Format in all cases: cell-based
Escherichia coli = conditions: 18 hours at 35° C.
Streptococcus sp. = conditions: broth dilution, 18 hours at 35° C.
Summary of the method: (§1)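 MIC, the lowest antibiotic concentration preventing growth, was read across 64-0.06 μg/mL with 5×10^5 CFU/mL inoculum. Method followed NCCLS M7-A2 broth dilution using Mueller-Hinton II; Gram-positive strains covered recent methicillin-, penicillin- and/or vancomycin-resistant clinical isolates.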

Staphylococcus sp. = conditions: broth dilution, 18 hours at 35° C.
Summary of the method: as §1

Enterococcus sp. = conditions: broth dilution, 18 hours at 35° C.
Summary of the method: as §1

SMILES: CC(c1ccccc1)C1NC(=O)CNC(=O)C(CO[Si](C)(C)C(C)(C)C)NC(=O)C(C(O)C2CNC(=N)N2C2OC3COC(C)(C)OC3C3OC(C)(C)OC32)NC(=O)C(C(O)C2CNC(=N)N2)NC(=O)C(Cc2ccc(O)cc2)NC1=O (stereo not shown) [Example 248]
- MIC Escherichia coli (ATCC 25922) (Escherichia coli): 64 µg/mL (≈ 54.9 µM)
- MIC Escherichia coli (GC 4559) (Escherichia coli): 64 µg/mL (≈ 54.9 µM)
- MIC Escherichia coli (GC 4560) (Escherichia coli): 8 µg/mL (≈ 6.86 µM)
- MIC Streptococcus agalactiae (GC 4564) (Streptococcus sp.): 64 µg/mL (≈ 54.9 µM)
- MIC Streptococcus pneumoniae (ATCC 6301) (Streptococcus sp.): 64 µg/mL (≈ 54.9 µM)
- MIC Streptococcus pneumoniae (GC 1894) (Streptococcus sp.): 64 µg/mL (≈ 54.9 µM)
- MIC Streptococcus pneumoniae (GC 4565) (Streptococcus sp.): 128 µg/mL (≈ 110 µM)
- MIC Streptococcus pyogenes (GC 4563) (Streptococcus sp.): 32 µg/mL (≈ 27.5 µM)
- MIC Streptococcus pneumoniae (ATCC 6301) (Streptococcus sp.; strain ATCC 6301): 64 µg/mL (≈ 54.9 µM)
- MIC Streptococcus pneumoniae (GC 1894) (Streptococcus sp.; strain GC 1894): 64 µg/mL (≈ 54.9 µM)
- MIC Streptococcus pyogenes (GC 4563) (Streptococcus sp.; strain GC 4563): 32 µg/mL (≈ 27.5 µM)
- MIC Streptococcus agalactiae (GC 4564) (Streptococcus sp.; strain GC 4564): 64 µg/mL (≈ 54.9 µM)
- MIC Streptococcus pneumoniae (GC 4565) (Streptococcus sp.; strain GC 4565): 128 µg/mL (≈ 110 µM)
- MIC Coagulase Negative Staphylococcus (GC 4547) (Staphylococcus sp.): 16 µg/mL (≈ 13.7 µM)
- MIC Coagulase Negative Staphylococcus (GC 4548) (Staphylococcus sp.): 32 µg/mL (≈ 27.5 µM)
- MIC Coagulase Negative Staphylococcus (GC 4549) (Staphylococcus sp.): 32 µg/mL (≈ 27.5 µM)
- MIC Coagulase Negative Staphylococcus (GC 4551) (Staphylococcus sp.): 32 µg/mL (≈ 27.5 µM)
- MIC Coagulase Negative Staphylococcus (GC 6257) (Staphylococcus sp.): 16 µg/mL (≈ 13.7 µM)
- MIC Staphylococcus aureus (ATCC 29213) (Staphylococcus sp.): 32 µg/mL (≈ 27.5 µM)
- MIC Staphylococcus aureus (GC 1131) (Staphylococcus sp.): 32 µg/mL (≈ 27.5 µM)
- MIC Staphylococcus aureus (GC 3051) (Staphylococcus sp.): 64 µg/mL (≈ 54.9 µM)
- MIC Staphylococcus aureus (GC 3053) (Staphylococcus sp.): 64 µg/mL (≈ 54.9 µM)
- MIC Staphylococcus aureus (GC 4541) (Staphylococcus sp.): 32 µg/mL (≈ 27.5 µM)
- MIC Staphylococcus aureus (GC 4542) (Staphylococcus sp.): 64 µg/mL (≈ 54.9 µM)
- MIC Staphylococcus aureus (GC 4544) (Staphylococcus sp.): 32 µg/mL (≈ 27.5 µM)
- MIC Staphylococcus aureus (GC 4545) (Staphylococcus sp.): 32 µg/mL (≈ 27.5 µM)
- MIC Staphylococcus aureus-SMITH (GC 4543) (Staphylococcus sp.): 32 µg/mL (≈ 27.5 µM)
- MIC Staphylococcus haemolyticus (GC 4546) (Staphylococcus sp.): 16 µg/mL (≈ 13.7 µM)
- MIC Staphylococcus aureus (ATCC 29213) (Staphylococcus sp.; strain ATCC 29213): 32 µg/mL (≈ 27.5 µM)
- MIC Staphylococcus aureus (GC 1131) (Staphylococcus sp.; strain GC 1131): 32 µg/mL (≈ 27.5 µM)
- MIC Staphylococcus aureus (GC 3051) (Staphylococcus sp.; strain GC 3051): 64 µg/mL (≈ 54.9 µM)
- MIC Staphylococcus aureus (GC 3053) (Staphylococcus sp.; strain GC 3053): 64 µg/mL (≈ 54.9 µM)
- MIC Staphylococcus aureus (GC 4541) (Staphylococcus sp.; strain GC 4541): 32 µg/mL (≈ 27.5 µM)
- MIC Staphylococcus aureus (GC 4542) (Staphylococcus sp.; strain GC 4542): 64 µg/mL (≈ 54.9 µM)
- MIC Staphylococcus aureus-SMITH (GC 4543) (Staphylococcus sp.; strain GC 4543): 32 µg/mL (≈ 27.5 µM)
- MIC Staphylococcus aureus (GC 4544) (Staphylococcus sp.; strain GC 4544): 32 µg/mL (≈ 27.5 µM)
- MIC Staphylococcus aureus (GC 4545) (Staphylococcus sp.; strain GC 4545): 32 µg/mL (≈ 27.5 µM)
- MIC Staphylococcus haemolyticus (GC 4546) (Staphylococcus sp.; strain GC 4546): 16 µg/mL (≈ 13.7 µM)
- MIC Coagulase Negative Staphylococcus (GC 4547) (Staphylococcus sp.; strain GC 4547): 16 µg/mL (≈ 13.7 µM)
- MIC Coagulase Negative Staphylococcus (GC 4548) (Staphylococcus sp.; strain GC 4548): 32 µg/mL (≈ 27.5 µM)
- MIC Coagulase Negative Staphylococcus (GC 4549) (Staphylococcus sp.; strain GC 4549): 32 µg/mL (≈ 27.5 µM)
- MIC Coagulase Negative Staphylococcus (GC 4551) (Staphylococcus sp.; strain GC 4551): 32 µg/mL (≈ 27.5 µM)
- MIC Coagulase Negative Staphylococcus (GC 6257) (Staphylococcus sp.; strain GC 6257): 16 µg/mL (≈ 13.7 µM)
- MIC Enterococcus avium (GC 4558) (Enterococcus sp.): 8 µg/mL (≈ 6.86 µM)
- MIC Enterococcus faecalis (ATCC 29212) (Enterococcus sp.): 64 µg/mL (≈ 54.9 µM)
- MIC Enterococcus faecalis (GC 2242) (Enterococcus sp.): 64 µg/mL (≈ 54.9 µM)
- MIC Enterococcus faecalis (GC 2691) (Enterococcus sp.): 32 µg/mL (≈ 27.5 µM)
- MIC Enterococcus faecalis (GC 3059) (Enterococcus sp.): 128 µg/mL (≈ 110 µM)
- MIC Enterococcus faecalis (GC 4552) (Enterococcus sp.): 128 µg/mL (≈ 110 µM)
- MIC Enterococcus faecalis (GC 4553) (Enterococcus sp.): 16 µg/mL (≈ 13.7 µM)
- MIC Enterococcus faecalis (GC 4554) (Enterococcus sp.): 64 µg/mL (≈ 54.9 µM)
- MIC Enterococcus faecalis (GC 6189) (Enterococcus sp.): 32 µg/mL (≈ 27.5 µM)
- MIC Enterococcus faecium (GC 2243) (Enterococcus sp.): 32 µg/mL (≈ 27.5 µM)
- MIC Enterococcus faecium (GC 4556) (Enterococcus sp.): 32 µg/mL (≈ 27.5 µM)
- MIC Enterococcus faecium (GC 4557) (Enterococcus sp.): 16 µg/mL (≈ 13.7 µM)
- MIC Enterococcus faecalis (ATCC 29212) (Enterococcus sp.; strain ATCC 29212): 64 µg/mL (≈ 54.9 µM)
- MIC Enterococcus faecalis (GC 2242) (Enterococcus sp.; strain GC 2242): 64 µg/mL (≈ 54.9 µM)
- MIC Enterococcus faecium (GC 2243) (Enterococcus sp.; strain GC 2243): 32 µg/mL (≈ 27.5 µM)
- MIC Enterococcus faecalis (GC 2691) (Enterococcus sp.; strain GC 2691): 32 µg/mL (≈ 27.5 µM)
- MIC Enterococcus faecalis (GC 3059) (Enterococcus sp.; strain GC 3059): 128 µg/mL (≈ 110 µM)
- MIC Enterococcus faecalis (GC 4552) (Enterococcus sp.; strain GC 4552): 128 µg/mL (≈ 110 µM)
- MIC Enterococcus faecalis (GC 4553) (Enterococcus sp.; strain GC 4553): 16 µg/mL (≈ 13.7 µM)
- MIC Enterococcus faecalis (GC 4554) (Enterococcus sp.; strain GC 4554): 64 µg/mL (≈ 54.9 µM)
- MIC Enterococcus faecium (GC 4556) (Enterococcus sp.; strain GC 4556): 32 µg/mL (≈ 27.5 µM)
- MIC Enterococcus faecium (GC 4557) (Enterococcus sp.; strain GC 4557): 16 µg/mL (≈ 13.7 µM)
- MIC Enterococcus avium (GC 4558) (Enterococcus sp.; strain GC 4558): 8 µg/mL (≈ 6.86 µM)
- MIC Enterococcus faecalis (GC 6189) (Enterococcus sp.; strain GC 6189): 32 µg/mL (≈ 27.5 µM)
